# According to patent US10174044B2, “Fused pyridines as kinase inhibitors” (BRISTOL-MYERS SQUIBB COMPANY, priority 2015, dated 2019):
# Biological target: GST-Xa-hAAK1 (Homo sapiens (Human), UniProt Q2M2I8)
# Experiment: AAK1 Kinase Assay
# Type: biochemical
# Details: bacterially expressed GST-Xa-hAAK1 3.5 nM; ATP 22 μM; fluoresceinated peptide substrate 1.5 μM; 3 hours at room temperature
# Description: The assays were performed in U-bottom 384-well plates. […] The reactions were initiated by the combination of bacterially expressed, GST-Xa-hAAK1 with substrates and test compounds. The reactions were incubated at room temperature for 3 hours and terminated by adding 60 μl of 35 mM EDTA buffer to each sample. The reactions were analyzed on the Caliper LabChip 3000 (Caliper, Hopkinton, Mass.) by electrophoretic separation of the fluorescent substrate and phosphorylated product. […] Compounds were dissolved at 10 mM in dimethylsulfoxide (DMSO) and evaluated at eleven concentrations. IC50 values were derived by non-linear regression analysis.
# Sequence of GST-Xa-hAAK1 (Q2M2I8 whole entry): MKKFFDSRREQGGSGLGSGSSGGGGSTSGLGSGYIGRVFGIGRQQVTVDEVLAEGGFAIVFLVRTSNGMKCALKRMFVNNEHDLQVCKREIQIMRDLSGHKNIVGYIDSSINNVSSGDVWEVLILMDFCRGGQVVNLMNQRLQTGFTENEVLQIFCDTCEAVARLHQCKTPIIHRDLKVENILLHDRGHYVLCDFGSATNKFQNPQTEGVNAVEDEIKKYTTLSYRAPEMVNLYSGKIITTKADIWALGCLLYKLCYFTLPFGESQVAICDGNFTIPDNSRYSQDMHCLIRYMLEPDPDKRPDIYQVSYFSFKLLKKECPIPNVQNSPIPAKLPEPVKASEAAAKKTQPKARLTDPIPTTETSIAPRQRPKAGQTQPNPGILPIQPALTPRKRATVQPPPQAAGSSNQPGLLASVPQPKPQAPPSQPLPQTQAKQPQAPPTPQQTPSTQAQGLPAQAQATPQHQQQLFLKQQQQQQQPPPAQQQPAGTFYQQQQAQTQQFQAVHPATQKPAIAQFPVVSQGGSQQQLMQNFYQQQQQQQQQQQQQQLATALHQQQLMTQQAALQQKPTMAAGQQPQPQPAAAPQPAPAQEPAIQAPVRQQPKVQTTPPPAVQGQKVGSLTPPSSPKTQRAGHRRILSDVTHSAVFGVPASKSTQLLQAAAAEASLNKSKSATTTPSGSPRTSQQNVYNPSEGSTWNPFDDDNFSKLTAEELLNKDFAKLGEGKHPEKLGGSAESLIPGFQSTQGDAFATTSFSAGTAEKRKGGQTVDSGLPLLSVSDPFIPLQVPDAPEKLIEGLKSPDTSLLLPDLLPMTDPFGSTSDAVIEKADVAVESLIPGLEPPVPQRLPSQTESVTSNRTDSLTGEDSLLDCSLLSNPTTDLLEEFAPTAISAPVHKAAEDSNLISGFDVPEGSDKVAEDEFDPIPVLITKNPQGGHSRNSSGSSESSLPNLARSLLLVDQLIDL
row,SMILES,IC50
1,"CCOC(=O)Nc1ncc2c(c1Cl)-c1ccc(OC[C@@](C)(N)CC(C)C)cc1CO2 [Example 47, (S)-ethyl (8-((2-amino-2,4-dimethylpentyl)oxy)-1-chloro-6H-isochromeno[3,4-c]pyridin-2-yl)carbamate]",26 nM
2,"CCn1c(=O)c2cc(OC[C@@](C)(N)CC(C)C)c(Cl)cc2c2ccnc(C)c21 [Example 16, (S)-8-((2-amino-2,4-dimethylpentyl)oxy)-9-chloro-5-ethyl-4-methylbenzo[c][1,7]naphthyridin-6(5H)-one]",24 nM
3,"Cc1nccc2c3ccc(OCC(C)(N)CC(C)C)cc3c(=O)n(C)c12 (stereo not shown) [Example 9, 8-((2-amino-2,4-dimethylpentyl)oxy)-4,5-dimethylbenzo[c][1,7]naphthyridin-6(5H)-one]",49 nM
4,"COC(=O)Nc1nc(Cl)c2c(c1Cl)-c1ccc(OC[C@@](C)(N)CC(C)C)c(Cl)c1CO2 [Example 63, (S)-methyl (8-((2-amino-2,4-dimethylpentyl)oxy)-1,4,7-trichloro-6H-isochromeno[3,4-c]pyridin-2-yl)carbamate]",15 nM
5,"Cc1nccc2c1[nH]c(=O)c1cc(OC[C@@](C)(N)CC(C)C)c(Cl)cc12 [Example 28, (S)-8-((2-amino-2,4-dimethylpentyl)oxy)-9-chloro-4-methylbenzo[c][1,7]naphthyridin-6(5H)-one]",611 nM
6,"CC(=O)Nc1cc2c(cn1)OCc1cc(OC[C@@](C)(N)CC(C)C)ccc1-2 [Example 37, (S)—N-(8-((2-amino-2,4-dimethylpentyl)oxy)-6H-isochromeno[3,4-c]pyridin-2-yl)acetamide]",2.4 nM
7,"COC(=O)Nc1cc2c(cn1)OCc1cc(OC[C@@H](N)CC(C)C)ccc1-2 [Example 34, (S)-methyl (8-((2-amino-4-methylpentyl)oxy)-6H-isochromeno[3,4-c]pyridin-2-yl)carbamate]",3.8 nM
8,"CC(C)C[C@](C)(N)COc1ccc2c(c1)COc1cnc(NC(=O)OC(C)C)cc1-2 [Example 54, (S)-isopropyl (8-((2-amino-2,4-dimethylpentyl)oxy)-6H-isochromeno[3,4-c]pyridin-2-yl)carbamate]",2.1 nM
9,"CC(C)C[C@](C)(N)COc1ccc2c(c1)COc1cnc(NCC(F)(F)F)cc1-2 [Example 43, (S)-8-((2-amino-2,4-dimethylpentyl)oxy)-N-(2,2,2-trifluoroethyl)-6H-isochromeno[3,4-c]pyridin-2-amine]",56 nM
10,"COC(=O)Nc1cc2c(cn1)OCc1cc(OC[C@@](C)(N)CC(C)C)c(F)cc1-2 [Example 49, (S)-methyl (8-((2-amino-2,4-dimethylpentyl)oxy)-9-fluoro-6H-isochromeno[3,4-c]pyridin-2-yl)carbamate]",5.4 nM
11,"Cc1nccc2c3cc(Cl)c(OC[C@@](C)(N)CC(C)C)cc3c(=O)n(C)c12 [Example 27, (S)-8-((2-amino-2,4-dimethylpentyl)oxy)-9-chloro-4,5-dimethylbenzo[c][1,7]naphthyridin-6(5H)-one]",1.7 nM
12,"COC(=O)Nc1nccc2c1OCc1cc(OC[C@@](C)(N)CC(C)C)ccc1-2 [Example 64, (S)-methyl (8-((2-amino-2,4-dimethylpentyl)oxy)-6H-isochromeno[3,4-c]pyridin-4-yl)carbamate]",7.8 nM
13,"Cc1cc2c(cc1OCC(N)CCC(F)(F)F)c(=O)n(C)c1cnccc21 (stereo not shown) [Example 6, 8-((2-amino-5,5,5-trifluoropentyl)oxy)-5,9-dimethylbenzo[c][1,7]naphthyridin-6(5H)-one]",3.7 nM
14,"CC(C)C[C@](C)(N)COc1ccc2c(c1)COc1c-2ccnc1N [Example 60, (S)-8-((2-amino-2,4-dimethylpentyl)oxy)-6H-isochromeno[3,4-c]pyridin-4-amine]",0.74 nM
15,"Cc1cc2c(cc1OC[C@@H](N)CC(C)C)c(=O)n(C)c1c(C)nccc21 [Example 4, (S)-8-((2-amino-4-methylpentyl)oxy)-4,5,9-trimethylbenzo[c][1,7]naphthyridin-6(5H)-one]",14 nM
16,"CC(=O)Nc1cc2c(cn1)OCc1cc(OC[C@@H](N)CC(C)C)ccc1-2 [Example 33, (S)—N-(8-((2-amino-4-methylpentyl)oxy)-6H-isochromeno[3,4-c]pyridin-2-yl)acetamide]",2.1 nM
17,"CC(=O)Nc1cc2c(cn1)OCc1cc(OCC(C)(N)CC(C)C)ccc1-2 (stereo not shown) [Example 36, N-(8-((2-amino-2,4-dimethylpentyl)oxy)-6H-isochromeno[3,4-c]pyridin-2-yl)acetamide]",2.6 nM
18,"CC(C)C[C@@](C)(N)COc1ccc2c(c1)COc1cnc(NCC(F)(F)F)cc1-2 [Example 44, (R)-8-((2-amino-2,4-dimethylpentyl)oxy)-N-(2,2,2-trifluoroethyl)-6H-isochromeno[3,4-c]pyridin-2-amine]",181 nM
19,"CC(C)CC(C)(N)COc1ccc2c(c1)c(=O)[nH]c1cnccc12 (stereo not shown) [Example 8, 8-((2-amino-2,4-dimethylpentyl)oxy)benzo[c][1,7]naphthyridin-6(5H)-one]",2.6 nM
20,"Cc1nccc2c3cc(C#N)c(OC[C@@](C)(N)CC(C)C)cc3c(=O)n(C3CC3)c12 [Example 24, (S)-8-((2-amino-2,4-dimethylpentyl)oxy)-5-cyclopropyl-4-methyl-6-oxo-5,6-dihydrobenzo[c][1,7]naphthyridine-9-carbonitrile]",69 nM
21,"CC(C)CC(C)(N)COc1ccc2c(c1)COc1cnc(NCC(F)(F)F)cc1-2 (stereo not shown) [Example 42, 8-((2-amino-2,4-dimethylpentyl)oxy)-N-(2,2,2-trifluoroethyl)-6H-isochromeno[3,4-c]pyridin-2-amine]",88 nM
22,"CCOC(=O)Nc1cc2c(cn1)OCc1cc(OC[C@@](C)(N)CC(C)C)ccc1-2 [Example 41, (S)-ethyl (8-((2-amino-2,4-dimethylpentyl)oxy)-6H-isochromeno[3,4-c]pyridin-2-yl)carbamate]",0.62 nM
23,"CC(C)C[C@](C)(N)COc1ccc2c(c1)COc1cnc(NS(C)(=O)=O)cc1-2 [Example 55, (S)—N-(8-((2-amino-2,4-dimethylpentyl)oxy)-6H-isochromeno[3,4-c]pyridin-2-yl)methanesulfonamide]",123 nM
24,"Cc1nccc2c3ccc(OC[C@@](C)(N)CC(C)C)cc3c(=O)n(C)c12 [Example 10, (S)-8-((2-amino-2,4-dimethylpentyl)oxy)-4,5-dimethylbenzo[c][1,7]naphthyridin-6(5H)-one]",35 nM
25,"Cc1cc2c(cc1OC[C@@H](N)CC(C)C)c(=O)n(C)c1cnccc21 [Example 3, (S)-8-((2-amino-4-methylpentyl)oxy)-5,9-dimethylbenzo[c][1,7]naphthyridin-6(5H)-one]",3.2 nM
